Drawing on BindingDB's records for doi:10.1007/s10822-022-00478-x (Roche Innovation Center Basel, F. Hoffmann-La Roche Ltd., 2022), this text covers IC50 for 44 compounds.

The target of this test is cAMP and cAMP-inhibited cGMP 3',5'-cyclic phosphodiesterase 10A (Homo sapiens, UniProt Q9Y233). As to the kind of experiment: PDE10A assay. The procedure, abridged:
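Scintillation proximity readout of [3H]cGMP hydrolysis (50 nM final substrate, 15 min) by 2 ng/well human PDE10A after 15 min compound preincubation at RT, pH 7.5 with MgCl2. Four-parameter logistic fit gave IC50, reported as pIC50.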
For the compound `COc1ccc(Cn2ccc(NC(=O)c3c(C(=O)N4CCC4)cnn3C)n2)cc1` [Roche-Dataset for PDE10A, Compound 977], the IC50 worked out at 79 nM.
On to `Cn1cc(-c2ccccc2)nc1CCc1nc(N2CCOCC2)c2cc(Cl)ccc2n1` [Roche-Dataset for PDE10A, Compound 54], for which the half-maximal inhibitory concentration (IC50) is 1.08 nM.
Regarding `O=C(NCCCS(=O)(=O)c1ccccc1)c1nc(C2CC2)cnc1Nc1cncnc1` [Roche-Dataset for PDE10A, Compound 665], the IC50 was 822 nM.
As for `O=C(Nc1cnn(Cc2ccccc2)c1)c1nc(C2CC2)ccc1Nc1cncnc1` [Roche-Dataset for PDE10A, Compound 614], the IC50 was 69 nM.
As for `Cn1ncc(C(=O)N2CCC2)c1C(=O)Nc1ccn(-c2ccc(Cl)cc2Cl)n1` [Roche-Dataset for PDE10A, Compound 1034], the IC50 stood at 1060 nM.
With `Cn1ncc(C(=O)N2CCC2)c1C(=O)Nc1cc2nc(-c3ccccc3)nn2cc1F` [Roche-Dataset for PDE10A, Compound 204] the figure was 0.78 nM; with `CCn1cc(-c2ccccc2)nc1CCc1nc2ccccc2nc1C` [Roche-Dataset for PDE10A, Compound 87], 41 nM; with `Cc1ccc2nc(Cl)c(OCc3nc(-c4ccccc4)cn3C)nc2c1` [Roche-Dataset for PDE10A, Compound 540], 5.06 nM.
In the case of `O=C(NCc1cn2ccsc2n1)c1nc(C2CC2)cnc1Nc1cncnc1` [Roche-Dataset for PDE10A, Compound 838], inhibition was half-maximal at 38 nM (IC50).
Compound `CCc1ccc(NC(=O)c2nc(C3CC3)cnc2Nc2cncnc2)c(C(=O)NCC(C)(C)O)n1` [US8703768, 181] registered an IC50 of 0.41 nM.
Take `O=C(Nc1sccc1C(=O)N1CCOCC1)c1nc(C2CC2)ccc1Nc1cncnc1` [US8703768, 90]: the half-maximal inhibitory concentration (IC50) was 0.44 nM.
In turn, `Cc1ncc(C)n2nc(/C=C/c3nc(N4CC[C@@H](C)C4)nn3C)nc12` [Roche-Dataset for PDE10A, Compound 560] yielded an IC50 of 24 nM.
With `COC1CN(C(=O)c2cnn(C)c2C(=O)Nc2ccn3nc(-c4ccccc4)nc3c2)C1` [Roche-Dataset for PDE10A, Compound 139] the figure was 25 nM; with `Cc1cc(CNC(=O)c2cnn(C)c2C(=O)Nc2ccn3cc(-c4ccccc4)nc3n2)n[nH]1` [Roche-Dataset for PDE10A, Compound 99], 17 nM.
As for `CNC(=O)c1cc2[nH]c(-c3ccccc3)nc2cc1NC(=O)c1nc(C2CC2)ccc1Nc1cncnc1` [Roche-Dataset for PDE10A, Compound 621], the 50% inhibitory concentration (IC50) was found to be 0.09 nM.
With `COCCN(C)C(=O)c1cnn(C)c1C(=O)Nc1ccn2cc(-c3cccc(OCCF)c3)nc2n1` [Roche-Dataset for PDE10A, Compound 45] the figure was 13 nM.
In turn, `O=C(Nc1ccn(CC2CC2)n1)c1nc(C2CC2)ccc1Nc1cncnc1` [Roche-Dataset for PDE10A, Compound 593] came in with a half-inhibitory concentration (IC50) of 23 nM.
The compound `O=C(NC1(c2ccc(Cl)cc2)CCC1)c1nc(C2CC2)cnc1Nc1cncnc1` [Roche-Dataset for PDE10A, Compound 1074] came in with a 50% inhibitory concentration (IC50) of 863 nM.
On to `C/C(=C\c1nc2c(C)ncc(C)n2n1)c1nc(Br)nn1C` [Roche-Dataset for PDE10A, Compound 1125], for which the concentration for half-maximal inhibition (IC50) was 4820 nM.
Compound `Cn1cc(-c2ccccc2)nc1CCc1ccccn1` [Roche-Dataset for PDE10A, Compound 467] gave a 50% inhibitory concentration (IC50) of 10000 nM.
Consider `Cn1ncc(NC(=O)c2nc(C3CC3)cnc2Nc2cncnc2)c1C(=O)N1CCCO1` [US8703768, 335], for which the 50% inhibitory concentration (IC50) worked out at 0.75 nM.
Under `Cc1cnc(C)n2nc(/C=C/c3nc(N4CCCC4)nn3C)nc12` [Roche-Dataset for PDE10A, Compound 474] stands 5.37 nM.
Take `COc1cccc(NC(=O)c2nc(C3CC3)cnc2Nc2cncnc2)n1` [Roche-Dataset for PDE10A, Compound 1011]: the IC50 worked out at 49 nM.
`CNC(=O)Cc1ccccc1NC(=O)c1nc(C2CC2)ccc1Nc1cncnc1` [Roche-Dataset for PDE10A, Compound 809] registered an IC50 of 53 nM.
Compound `Cn1ncc(C(=O)N2CCC2)c1C(=O)Nc1ccn(C2CCC2)n1` [Roche-Dataset for PDE10A, Compound 1093] registered an IC50 of 496 nM.
As to `CS(=O)(=O)c1ccc(CNC(=O)c2nc(C3CC3)cnc2Nc2cncnc2)cc1` [Roche-Dataset for PDE10A, Compound 800], 554 nM corresponded to half-maximal inhibition (IC50).
For the compound `Cc1cnn2c(C)c(CCc3nc(N4CCCC4)nn3C)nc2c1C` [Roche-Dataset for PDE10A, Compound 216], the IC50 is 20 nM.
Under `Cc1cc(Cl)c(C)n2nc(/C=C/c3nc(N4CCCC4)nn3C)nc12` [Roche-Dataset for PDE10A, Compound 300] stands 0.33 nM; under `O=C(Nc1ccn2nc(-c3ccccc3)nc2c1)c1cc(Cl)nc(N2CCCCC2)c1` [Roche-Dataset for PDE10A, Compound 86], 52 nM.
`CNC(=O)c1cc2[nH]c(-c3ccccc3)nc2cc1NC(=O)c1c(C(=O)N2CCOCC2)cnn1C` [Roche-Dataset for PDE10A, Compound 453] gave an IC50 of 195 nM.
With `COCCN(C)C(=O)c1cnn(C)c1C(=O)Nc1cc2nc(-c3ccccc3)nn2cn1` [Roche-Dataset for PDE10A, Compound 304] the figure was 0.79 nM.
In turn, `Cc1ncc(C)n2nc(CCc3ncn(-c4ccccc4)n3)nc12` [Roche-Dataset for PDE10A, Compound 400] registered a 50% inhibitory concentration (IC50) of 82 nM.
Compound `Cc1ncc(C)n2nc(/C=C/c3nc(N4CC[C@H](C)C4)nn3C)nc12` [Roche-Dataset for PDE10A, Compound 566] registered a half-inhibitory concentration (IC50) of 45 nM.
`CCNC(=O)c1c(NC(=O)c2c(C(=O)N3CCC3)cnn2C)cnn1CC` [Roche-Dataset for PDE10A, Compound 1076] yielded a half-maximal inhibitory concentration (IC50) of 1920 nM.
`Cn1cnc(C(=O)N2CCC2)c1C(=O)Nc1ccn2nc(-c3ccccc3)nc2c1` [Roche-Dataset for PDE10A, Compound 183] showed a concentration for half-maximal inhibition (IC50) of 21 nM.
Compound `Cn1nc(N2CCCC2)nc1CCc1nc2cnc(C#N)cn2n1` [Roche-Dataset for PDE10A, Compound 500] displayed a 50% inhibitory concentration (IC50) of 4170 nM.
Compound `CNC(=O)c1cc2[nH]c(-c3ccccc3)nc2cc1NC(=O)c1cc(C)n(C(C)(C)C)n1` [Roche-Dataset for PDE10A, Compound 713] had an IC50 of 76 nM.
`CN(C(=O)c1cnn(C)c1C(=O)N[C@@H]1CCn2c(nc(-c3ccccc3)c2Cl)C1)C1CC1` [Roche-Dataset for PDE10A, Compound 110] displayed a 50% inhibitory concentration (IC50) of 52 nM.
The compound `Cn1ccc(NC(=O)c2nc(C3CC3)ccc2Nc2cncnc2)n1` [Roche-Dataset for PDE10A, Compound 883] had an IC50 of 118 nM.
With `COCCn1ccc(NC(=O)c2nc(C3CC3)ccc2Nc2cncnc2)n1` [Roche-Dataset for PDE10A, Compound 640], the IC50 is 14 nM.
`Cc1nc2cc(Cl)ccc2nc1OCc1nc(-c2ccccc2)cn1C` [Roche-Dataset for PDE10A, Compound 587] gave a concentration for half-maximal inhibition (IC50) of 4.05 nM.
As to `COc1ccccc1-c1cn2c(n1)C[C@H](NC(=O)c1c(C(=O)N3CCC3)cnn1C)CC2` [Roche-Dataset for PDE10A, Compound 330], the midpoint of inhibition, the IC50, lay at 3.76 nM.
In the case of `O=C(c1ccccc1)N1CCN(C(=O)c2nc(C3CC3)cnc2Nc2cncnc2)CC1` [Roche-Dataset for PDE10A, Compound 1104], inhibition was half-maximal at 10000 nM (IC50).
In the case of `O=C(Nc1cc(-c2ccccn2)nn1C1CCCCC1)c1nc(C2CC2)ccc1Nc1cncnc1`, 1.32 nM corresponded to half-maximal inhibition (IC50).

As a reminder, the IC50 is the concentration that inhibits the measured activity by half. Read a high IC50 as weaker potency.
